Data reported in patent publication US9738634B2, “Heterocyclic amide compound and herbicide” (SYNGENTA PARTICIPATIONS AG, priority 2013, dated 2017).

Legend:
Type in all cases: in vivo
[1] = tested on: bulrush; test: Test Example 1: weedkilling efficacy, preemergent weed treatment in the submerged state; B: bulrush
Description: (§1) Weedkilling efficacy test on preemergent weed treatment in the submerged state
(§2) Alluvial soil was introduced into 1/10,000 Are Wagner pots, and 4 cm depth submerged conditions were created by addition of water and mixing. Seeds of barnyard grass, bulrush and oval-leafed pondweed were mixed and sown into the aforesaid cups, then 2.5 leaf stage rice seedlings were transplanted. On the sowing day, emulsions of compounds of the present invention prepared according to compounding example 2 were diluted with water to give the specified dosages and applied onto the water surface. The plants were grown after placing the cups in a greenhouse at 25 to 30° C. 3 weeks after the pesticide treatment the effect on each type of plant was investigated on the basis of the following assessment criteria.
(§3) A: barnyard grass, B: bulrush, C: oval-leafed pondweed, D: crabgrass, E: green foxtail, F: barnyard grass, G: wild oat, H: black-grass, I: Italian ryegrass, J: common wind-grass, K: Indian mallow, L: redroot pigweed, M: fig-leafed goosefoot, N: chickweed, O: catchweed, p: birds-eye speedwell, a: transplanted rice, b: directly sown rice, c: corn, d: soybean, e: wheat, f: beet, g: rapeseed
(§4) Further, pesticide dosage (g/ha) indicates the concentration regulated such that treatment was with only the stated number of grams (g), when calculated per hectare (ha).

[2] = tested on: barnyard grass; test: Test Example 2: weedkilling efficacy, growth period weed treatment in the submerged state; A: barnyard grass
Protocol: (§5) Weedkilling efficacy test on growth period weed treatment in the submerged state
as §2, with “and the plants were grown by placing in a greenhouse at 25 to 30° C. When the barnyard grass, bulrush and oval-leafed pondweed had reached the 1-2” for “then 2.5”, “stage,” for “stage rice seedlings were transplanted. On the sowing day,”, “surface.” for “surface. The plants were grown after placing the cups in a greenhouse at 25 to 30° C.”, “the” for “the following”, “criteria of test example 1.” for “criteria.”
as §3, §4

[3] = tested on: oval-leafed pondweed; test: Test Example 2: weedkilling efficacy, growth period weed treatment in the submerged state; C: oval-leafed pondweed
Protocol: as §5
as §2, with “and the plants were grown by placing in a greenhouse at 25 to 30° C. When the barnyard grass, bulrush and oval-leafed pondweed had reached the 1-2” for “then 2.5”, “stage,” for “stage rice seedlings were transplanted. On the sowing day,”, “surface.” for “surface. The plants were grown after placing the cups in a greenhouse at 25 to 30° C.”, “the” for “the following”, “criteria of test example 1.” for “criteria.”
as §3, §4

[4] = tested on: transplanted rice; test: Test Example 1: preemergent weed treatment in the submerged state, effect on crop; a: transplanted rice
Description: as §1, §2, §3, §4

[5] = tested on: barnyard grass; test: Test Example 1: weedkilling efficacy, preemergent weed treatment in the submerged state; A: barnyard grass
Description: as §1, §2, §3, §4

[6] = tested on: bulrush; test: Test Example 2: weedkilling efficacy, growth period weed treatment in the submerged state; B: bulrush
Protocol: as §5
as §2, with “and the plants were grown by placing in a greenhouse at 25 to 30° C. When the barnyard grass, bulrush and oval-leafed pondweed had reached the 1-2” for “then 2.5”, “stage,” for “stage rice seedlings were transplanted. On the sowing day,”, “surface.” for “surface. The plants were grown after placing the cups in a greenhouse at 25 to 30° C.”, “the” for “the following”, “criteria of test example 1.” for “criteria.”
as §3, §4

[7] = tested on: oval-leafed pondweed; test: Test Example 1: weedkilling efficacy, preemergent weed treatment in the submerged state; C: oval-leafed pondweed
Description: as §1, §2, §3, §4

Row | Structure (SMILES) | B: bulrush, weed kill grade ([1]; treatment dosage 252 g/ha) | A (barnyard grass) weedkilling efficacy grade ([2]; treatment dosage 252 g/ha) | C (oval-leafed pondweed) weedkilling efficacy grade ([3]; treatment dosage 252 g/ha) | a: transplanted rice, effect on crop grade ([4]; treatment dosage 252 g/ha) | A: barnyard grass, weed kill grade ([5]; treatment dosage 252 g/ha) | B (bulrush) weedkilling efficacy grade ([6]; treatment dosage 252 g/ha) | C: oval-leafed pondweed, weed kill grade ([7]; treatment dosage 252 g/ha) | B: bulrush, weed kill grade ([1]; treatment dosage 320 g/ha) | A (barnyard grass) weedkilling efficacy grade ([2]; treatment dosage 320 g/ha) | C (oval-leafed pondweed) weedkilling efficacy grade ([3]; treatment dosage 320 g/ha) | a: transplanted rice, effect on crop grade ([4]; treatment dosage 320 g/ha) | A: barnyard grass, weed kill grade ([5]; treatment dosage 320 g/ha) | B (bulrush) weedkilling efficacy grade ([6]; treatment dosage 320 g/ha) | C: oval-leafed pondweed, weed kill grade ([7]; treatment dosage 320 g/ha) | other results
1 | COc1cccc(NC(=O)C(C)(C)N2COCN(c3ccccc3)C2=O)n1 [A-2-52] | 5 (weed kill ratio 90% or more, (practically complete withering)) | 4 (weed kill ratio 70% or more, less than 90%) | 2 (weed kill ratio 20% or more, less than 40%) | 1 (weed kill ratio 5% or more, less than 20%) | 5 (weed kill ratio 90% or more, (practically complete withering)) | 5 (weed kill ratio 90% or more, (practically complete withering)) | 5 (weed kill ratio 90% or more, (practically complete withering)) | – | – | – | – | – | – | – | –
2 | CC(C)(C(=O)Nc1cc(OC(F)F)ccn1)N1COCN(c2ccccc2)C1=O [A-2-53] | – | – | – | – | – | – | – | 5 (weed kill ratio 90% or more, (practically complete withering)) | 5 (weed kill ratio 90% or more, (practically complete withering)) | 5 (weed kill ratio 90% or more, (practically complete withering)) | 1 (weed kill ratio 5% or more, less than 20%) | 5 (weed kill ratio 90% or more, (practically complete withering)) | 5 (weed kill ratio 90% or more, (practically complete withering)) | 5 (weed kill ratio 90% or more, (practically complete withering)) | –
3 | CC(C)(C(=O)Nc1cccc(OC(F)F)n1)N1COCN(c2ccccc2)C1=O [A-2-54] | – | – | – | – | – | – | – | 5 (weed kill ratio 90% or more, (practically complete withering)) | 3 (weed kill ratio 40% or more, less than 70%) | 3 (weed kill ratio 40% or more, less than 70%) | 1 (weed kill ratio 5% or more, less than 20%) | 5 (weed kill ratio 90% or more, (practically complete withering)) | 4 (weed kill ratio 70% or more, less than 90%) | 4 (weed kill ratio 70% or more, less than 90%) | –
4 | CC(C)(C(=O)Nc1cc(Oc2ccccc2)ccn1)N1COCN(c2ccccc2)C1=O [A-2-55] | – | – | – | – | – | – | – | – | – | – | – | – | – | – | B: bulrush, weed kill grade ([1]; treatment dosage 234 g/ha): 5 (weed kill ratio 90% or more, (practically complete withering)); A (barnyard grass) weedkilling efficacy grade ([2]; treatment dosage 234 g/ha): 0 (weed kill ratio 5% or less (practically no effect)); C (oval-leafed pondweed) weedkilling efficacy grade ([3]; treatment dosage 234 g/ha): 5 (weed kill ratio 90% or more, (practically complete withering)); a: transplanted rice, effect on crop grade ([4]; treatment dosage 234 g/ha): 0 (weed kill ratio 5% or less (practically no effect)); A: barnyard grass, weed kill grade ([5]; treatment dosage 234 g/ha): 5 (weed kill ratio 90% or more, (practically complete withering)); B (bulrush) weedkilling efficacy grade ([6]; treatment dosage 234 g/ha): 2 (weed kill ratio 20% or more, less than 40%); C: oval-leafed pondweed, weed kill grade ([7]; treatment dosage 234 g/ha): 5 (weed kill ratio 90% or more, (practically complete withering))
5 | Cc1cc(C)nc(NC(=O)C(C)(C)N2COCN(c3ccccc3)C2=O)c1 [A-2-56] | 5 (weed kill ratio 90% or more, (practically complete withering)) | 4 (weed kill ratio 70% or more, less than 90%) | 3 (weed kill ratio 40% or more, less than 70%) | 0 (weed kill ratio 5% or less (practically no effect)) | 5 (weed kill ratio 90% or more, (practically complete withering)) | 5 (weed kill ratio 90% or more, (practically complete withering)) | 5 (weed kill ratio 90% or more, (practically complete withering)) | – | – | – | – | – | – | – | –
6 | Cc1cc(NC(=O)C(C)(C)N2COCN(c3ccccc3)C2=O)nc(C(F)(F)F)c1 [A-2-57] | – | – | – | – | – | – | – | 5 (weed kill ratio 90% or more, (practically complete withering)) | 5 (weed kill ratio 90% or more, (practically complete withering)) | 5 (weed kill ratio 90% or more, (practically complete withering)) | 0 (weed kill ratio 5% or less (practically no effect)) | 5 (weed kill ratio 90% or more, (practically complete withering)) | 5 (weed kill ratio 90% or more, (practically complete withering)) | 5 (weed kill ratio 90% or more, (practically complete withering)) | –
7 | Cc1cc(C(F)(F)F)cc(NC(=O)C(C)(C)N2COCN(c3ccccc3)C2=O)n1 [A-2-58] | – | – | – | – | – | – | – | 5 (weed kill ratio 90% or more, (practically complete withering)) | 5 (weed kill ratio 90% or more, (practically complete withering)) | 5 (weed kill ratio 90% or more, (practically complete withering)) | 1 (weed kill ratio 5% or more, less than 20%) | 5 (weed kill ratio 90% or more, (practically complete withering)) | 5 (weed kill ratio 90% or more, (practically complete withering)) | 5 (weed kill ratio 90% or more, (practically complete withering)) | –
8 | CCOc1cc(C(F)(F)F)cc(NC(=O)C(C)(C)N2COCN(c3ccccc3)C2=O)n1 [A-2-60] | – | – | – | – | – | – | – | 5 (weed kill ratio 90% or more, (practically complete withering)) | 5 (weed kill ratio 90% or more, (practically complete withering)) | 5 (weed kill ratio 90% or more, (practically complete withering)) | 2 (weed kill ratio 20% or more, less than 40%) | 5 (weed kill ratio 90% or more, (practically complete withering)) | 5 (weed kill ratio 90% or more, (practically complete withering)) | 5 (weed kill ratio 90% or more, (practically complete withering)) | –
9 | CC(C)(C(=O)Nc1cncc(F)c1)N1COCN(c2ccccc2)C1=O [A-3-01] | 5 (weed kill ratio 90% or more, (practically complete withering)) | 1 (weed kill ratio 5% or more, less than 20%) | 2 (weed kill ratio 20% or more, less than 40%) | 1 (weed kill ratio 5% or more, less than 20%) | 5 (weed kill ratio 90% or more, (practically complete withering)) | 5 (weed kill ratio 90% or more, (practically complete withering)) | 4 (weed kill ratio 70% or more, less than 90%) | – | – | – | – | – | – | – | –
10 | CC(C)(C(=O)Nc1cncc(Cl)c1)N1COCN(c2ccccc2)C1=O [A-3-02] | 5 (weed kill ratio 90% or more, (practically complete withering)) | 2 (weed kill ratio 20% or more, less than 40%) | 3 (weed kill ratio 40% or more, less than 70%) | 2 (weed kill ratio 20% or more, less than 40%) | 5 (weed kill ratio 90% or more, (practically complete withering)) | 5 (weed kill ratio 90% or more, (practically complete withering)) | 5 (weed kill ratio 90% or more, (practically complete withering)) | – | – | – | – | – | – | – | –
11 | CC(C)(C(=O)Nc1cncc(Br)c1)N1COCN(c2ccccc2)C1=O [A-3-03] | 5 (weed kill ratio 90% or more, (practically complete withering)) | 3 (weed kill ratio 40% or more, less than 70%) | 4 (weed kill ratio 70% or more, less than 90%) | 0 (weed kill ratio 5% or less (practically no effect)) | 5 (weed kill ratio 90% or more, (practically complete withering)) | 5 (weed kill ratio 90% or more, (practically complete withering)) | 5 (weed kill ratio 90% or more, (practically complete withering)) | – | – | – | – | – | – | – | –
12 | CC(C)(C(=O)Nc1cc(Br)cnc1F)N1COCN(c2ccccc2)C1=O [A-3-04] | 5 (weed kill ratio 90% or more, (practically complete withering)) | 5 (weed kill ratio 90% or more, (practically complete withering)) | 3 (weed kill ratio 40% or more, less than 70%) | 3 (weed kill ratio 40% or more, less than 70%) | 5 (weed kill ratio 90% or more, (practically complete withering)) | 5 (weed kill ratio 90% or more, (practically complete withering)) | 5 (weed kill ratio 90% or more, (practically complete withering)) | – | – | – | – | – | – | – | –
